For the test, the system named is HCV pseudotype (HIV core proteins, HCV E1 and E2 of strain H77). The settings on record: for Percent inhibition: 25 μM; for Inhibition of HCV pseudotype infectivity (in words): summary of Tables 7 and 8.
Setting [1] is: HCV J4 1b E2 peptides at ~25 μM, Table 8, controls as in Table 7.
Where [2] appears, read: HCV H77 1a E2 peptides at ~25 μM, Table 7, virus alone 448,123.

Where two headings read alike, the source gives them in different places. Ends that are not written are not given here.

Take `CC(C)C[C@H](NC(=O)[C@H](CC(C)C)NC(=O)[C@H](CC(C)C)NC(=O)[C@@H]1CCCN1C(=O)[C@H](CO)NC(=O)[C@H](CC(C)C)NC(=O)[C@H](CCC(=O)O)NC(=O)[C@H](CO)NC(=O)[C@H](CCCNC(=N)N)NC(=O)[C@H](CC(=O)O)NC(=O)[C@H](CCCNC(=N)N)NC(=O)[C@H](CC(=O)O)NC(=O)[C@H](CCC(=O)O)NC(=O)[C@H](CC(C)C)NC(=O)[C@H](CC(N)=O)NC(=O)[C@@H](N)CS)C(=O)N[C@@H](CO)C(=O)N[C@H](C(=O)O)[C@@H](C)O` [compound 113, CNLEDRDRSELSPLLLST]: the Percent inhibition is −27.3%. For the same compound, the Luciferase units under setting [1] is reported as 570,553 luciferase units (lumens).
In the case of `CC[C@H](C)[C@H](NC(=O)[C@H](CCC(N)=O)NC(=O)[C@H](Cc1c[nH]c2ccccc12)NC(=O)[C@H](CCC(=O)O)NC(=O)[C@@H](NC(=O)[C@@H](NC(=O)[C@H](CO)NC(=O)[C@H](CC(C)C)NC(=O)[C@H](CC(C)C)NC(=O)[C@H](CC(C)C)NC(=O)[C@@H]1CCCN1C(=O)[C@H](CO)NC(=O)[C@H](CC(C)C)NC(=O)[C@H](CCC(=O)O)NC(=O)[C@H](CO)NC(=O)[C@@H](N)CCCNC(=N)N)[C@@H](C)O)[C@@H](C)O)C(=O)N[C@@H](CC(C)C)C(=O)N1CCC[C@H]1C(=O)O` [compound 114, RSELSPLLLSTTEWQILP], the Percent inhibition was determined as 39.7%. The Luciferase units under setting [1] was 270,190 luciferase units (lumens).
In the case of “AFVSFAIKWEYILLLFLL [compound 119, AFVSFAIKWEYILLLFLL]”, the Percent inhibition is listed as 84.6%. The Luciferase units under setting [1] is on record as 69,220 luciferase units (lumens).
As for “AGVDAETHVTGGSAGRTT [peptide 1, AGVDAETHVTGGSAGRTT]”, the Percent inhibition was determined as 44.1%. Besides, under setting [2], the Luciferase units was 250,376 luciferase units (lumens).
Take “AGVDGETHTTGRVAGHTT [compound 54, AGVDGETHTTGRVAGHTT]”: the Percent inhibition is reported as 17.9%. In addition, the Luciferase units under setting [1] is listed as 372,393 luciferase units (lumens).
For the compound “AKQNIQLINTNGSWHINS [peptide 5, AKQNIQLINTNGSWHINS]”, the Percent inhibition was determined as 89.3% and the “Inhibition of HCV pseudotype infectivity (in words)” value (shortened to “Inhibition … (in words)”) is “inhibitory”. Also, under setting [2], the Luciferase units is on record as 48,000 luciferase units (lumens).
As for ARVCACLWMMLLIAQAEA [compound 121], the Percent inhibition worked out at 24.5%. The Luciferase units under setting [1] is 338,200 luciferase units (lumens).
For ARVCSCLWMMLLISQAEA [compound 49], the Percent inhibition was 31.4%. Under setting [2], the Luciferase units is recorded as 307,310 luciferase units (lumens).
Take “CDLEDRDRSELSPLLLST [compound 38, CDLEDRDRSELSPLLLST]”: the Percent inhibition came out at 23.0%. Also, under setting [2], the Luciferase units was 345,110 luciferase units (lumens).
Turning to “DTDVFVLNNTRPPLGNWF [compound 21, DTDVFVLNNTRPPLGNWF]”, the Percent inhibition is given as 45.9%. Also, the Luciferase units under setting [2] is 242,223 luciferase units (lumens).
Turning to “DWFAQGWGPITYTKPNSS [compound 89, DWFAQGWGPITYTKPNSS]”, the Percent inhibition is given as −0.3%. Besides, the Luciferase units under setting [1] is 449,293 luciferase units (lumens).
In the case of “DYPYRLWHYPCTINYTIF [compound 32, DYPYRLWHYPCTINYTIF]”, the Percent inhibition is 81.0% and the “Inhibition … (in words)” value is listed as “inhibitory”. The Luciferase units under setting [2] is recorded as 85,086 luciferase units (lumens).
For the compound “DYPYRLWHYPCTLNFSIF [compound 108, DYPYRLWHYPCTLNFSIF]”, the Percent inhibition was determined as 90.9% and the “Inhibition … (in words)” value is listed as “inhibitory”. Also, under setting [1], the Luciferase units is given as 40,853 luciferase units (lumens).
Take FYAHKFNSSGCPERMASC [compound 86]: the Percent inhibition is 11.2%. The Luciferase units under setting [1] is 398,110 luciferase units (lumens).
With FYQHKFNSSGCPERLASC [compound 9], the Percent inhibition is −11.8%. Also, the Luciferase units under setting [2] is 501,126 luciferase units (lumens).
As to “GHTTSGFTSLFSSGASQK [compound 81, GHTTSGFTSLFSSGASQK]”, the Percent inhibition is reported as −7.3%. Besides, the Luciferase units under setting [1] was 480,623 luciferase units (lumens).
In the case of GNNTLLCPTDCFRKHPEA [compound 27], the Percent inhibition is −28.4%. The Luciferase units under setting [2] is given as 575,206 luciferase units (lumens).
Consider GNRILICPTDCFRKHPEA [compound 103], for which the Percent inhibition was 31.8%. The Luciferase units under setting [1] is 305,690 luciferase units (lumens).
With GNWFGCTWMNSTGFTKVC [compound 23], the Percent inhibition amounted to 17.9%. In addition, the Luciferase units under setting [2] is on record as 367,916 luciferase units (lumens).
“GPISYANGSGLDERPYCW [compound 13, GPISYANGSGLDERPYCW]”: the Percent inhibition turned out to be 31.1%. For the same compound, the Luciferase units under setting [2] was 313,323 luciferase units (lumens).
In the same order, the values of “GRTTAGLVGLLTPGAKQN [peptide 3, GRTTAGLVGLLTPGAKQN]” are 0.05% and 447,906 luciferase units (lumens).
With GSGLDERPYCWHYPPRPC [compound 14], the Percent inhibition is recorded as 37.6%. In addition, the Luciferase units under setting [2] was 279,626 luciferase units (lumens).
In the case of “HINSTALNCNESLNTGWL [compound 7, HINSTALNCNESLNTGWL]”, the Percent inhibition is on record as 14.9%. Moreover, the Luciferase units under setting [2] is recorded as 381,340 luciferase units (lumens).
In the same order, the values of “HPEATYSRCGSGPWITPR [compound 29, HPEATYSRCGSGPWITPR]” are 33.6% and 297,353 luciferase units (lumens).
On to “HPEATYTKCGSGPWLTPR [compound 105, HPEATYTKCGSGPWLTPR]”, for which the Percent inhibition is −23.2%. Besides, the Luciferase units under setting [1] is listed as 552,170 luciferase units (lumens).
Consider HRLEAACNWTRGERCDLE [compound 36], for which the Percent inhibition is reported as −19.5%. For the same compound, the Luciferase units under setting [2] was 535,016 luciferase units (lumens).
Consider HRLNAACNWTRGERCNLE [compound 111], for which the Percent inhibition is reported as −39.2%. Further, under setting [1], the Luciferase units is 632,613 luciferase units (lumens).
Turning to “HVTGGSAGRTTAGLVGLL [peptide 2, HVTGGSAGRTTAGLVGLL]”, the Percent inhibition stood at 0.2%. Besides, the Luciferase units under setting [2] is recorded as 447,336 luciferase units (lumens).
As to “HYPCTINYTIFKVRMYVG [compound 33, HYPCTINYTIFKVRMYVG]”, the Percent inhibition came to 95.0% and the “Inhibition … (in words)” value is listed as “inhibitory”. In addition, the Luciferase units under setting [2] is 22,406 luciferase units (lumens).
As for “HYPCTLNFSIFKVRMYVG [compound 109, HYPCTLNFSIFKVRMYVG]”, the Percent inhibition amounted to 79.4% and the “Inhibition … (in words)” value is recorded as “inhibitory”. The Luciferase units under setting [1] was 96,893 luciferase units (lumens).
For the compound “INTNGSWHINSTALNCNE [peptide 6, INTNGSWHINSTALNCNE]”, the Percent inhibition was −12.3%. Also, under setting [2], the Luciferase units is reported as 503,446 luciferase units (lumens).
Consider ITPRCMVDYPYRLWHYPC [compound 31], for which the Percent inhibition came out at 6.4%. The Luciferase units under setting [2] is 419,263 luciferase units (lumens).
Consider KCGSGPWLTPRCLVDYPY [compound 106], for which the Percent inhibition came out at 60.4%. Moreover, the Luciferase units under setting [1] is 193,533 luciferase units (lumens).
As to “KWEYVVLLFLLLADARVC [compound 47, KWEYVVLLFLLLADARVC]”, the Percent inhibition is recorded as 56.4%. Also, under setting [2], the Luciferase units is reported as 195,320 luciferase units (lumens).
In the same order, the values of “LASCRRLTDFAQGWGPIS [compound 11, LASCRRLTDFAQGWGPIS]” are 19.6% and 360,410 luciferase units (lumens).
LFLLLADARVCACLWMML [compound 120]: the Percent inhibition is given as −3.4%. In addition, under setting [1], the Luciferase units is 463,243 luciferase units (lumens).
Take LFLLLADARVCSCLWMML [compound 48]: the Percent inhibition turned out to be 35.1%. Further, the Luciferase units under setting [2] is reported as 290,786 luciferase units (lumens).
Turning to “LLSTTEWQILPCAFTTLP [compound 115, LLSTTEWQILPCAFTTLP]”, the Percent inhibition is listed as −6.2%. Also, under setting [1], the Luciferase units was 475,713 luciferase units (lumens).
In the case of “LLSTTQWQVLPCSFTTLP [compound 40, LLSTTQWQVLPCSFTTLP]”, the Percent inhibition is given as 1.3%. Also, under setting [2], the Luciferase units is 442,346 luciferase units (lumens).
LTPRCLVDYPYRLWHYPC [compound 107]: the Percent inhibition was found to be 11.1%. The Luciferase units under setting [1] is 402,976 luciferase units (lumens).
“MASCRPIDWFAQGWGPIT [compound 88, MASCRPIDWFAQGWGPIT]”: the Percent inhibition turned out to be 7.9%. In addition, the Luciferase units under setting [1] is listed as 412,776 luciferase units (lumens).
As for “MYVGGVEHRLEAACNWTR [compound 35, MYVGGVEHRLEAACNWTR]”, the Percent inhibition is 66.7%. In addition, the Luciferase units under setting [2] is recorded as 153,553 luciferase units (lumens).
For the compound “NCNESLNTGWLAGLFYQH [compound 8, NCNESLNTGWLAGLFYQH]”, the Percent inhibition is listed as 74.6%. For the same compound, the Luciferase units under setting [2] is given as 113,650 luciferase units (lumens).
“NNTRPPLGNWFGCTWMNS [compound 22, NNTRPPLGNWFGCTWMNS]”: the Percent inhibition is 45.2%. Besides, the Luciferase units under setting [2] is recorded as 245,900 luciferase units (lumens).
Take “NWTRGERCDLEDRDRSEL [compound 37, NWTRGERCDLEDRDRSEL]”: the Percent inhibition is −30.7%. Besides, the Luciferase units under setting [2] was 585,553 luciferase units (lumens).
PASQVCGPVYCFTPSPVV [compound 93]: the Percent inhibition was determined as 9.7%. For the same compound, the Luciferase units under setting [1] is reported as 409,220 luciferase units (lumens).
In the case of PNSSDQRPYCWHYAPRPC [compound 90], the Percent inhibition is recorded as 5.5%. In addition, the Luciferase units under setting [1] is 423,326 luciferase units (lumens).

The values above are taken from US7381705B2, “Inhibitors of hepatitis C virus” (The Administrators Of The Tulane Educational Fund, priority 2004, dated 2008).
